SMILES strings stand for the structures.

The subject of data set [1] is Pseudomonas aeruginosa. Description: Antibacterial activity against Pseudomonas aeruginosa 260-97103 assessed as fractional inhibitory concentration incubated for 18 hrs in presence of tigecycline by broth microdilution assay. Format: functional. In general terms: In broth dilution the organism is exposed to a series of concentrations in liquid medium.
Data set [2] relates to Pseudomonas aeruginosa. Put plainly: Antibacterial activity against Pseudomonas aeruginosa 260-97103 infected in Galleria mellonella larvae assessed as survival of larvae treated at 3 hrs post-infection in presence of chloramphenicol and measured every 6 hrs for 36 hrs. Format: functional, organism-based. Particulars: dose 75-100 mg/kg.
The test system of the next data set is HepG2. Put plainly: Cytotoxicity against human HepG2 cells assessed as cell viability at 50 uM incubated for 48 hrs in presence of doxycycline by prestoblue assay. Format: cell-based. Particulars: hepg2, 48 h.
For data set [3], the system named is Pseudomonas aeruginosa. Description: Potentiation of doxycycline-induced antibacterial activity against Pseudomonas aeruginosa 264-101354 assessed as fold change in doxycycline MIC at 9.8 uM incubated for 18 hrs in presence of doxycycline by broth microdilution assay relative to control. In kind it is functional.
Data set [4] concerns Pseudomonas aeruginosa. Description: Antibacterial activity against Pseudomonas aeruginosa 260-97103 infected in Galleria mellonella larvae assessed as survival of larvae at 100 mg/kg treated at 3 hrs post-infection in presence of doxycycline and measured after 24 hrs relative to control. In kind it is functional.
For data set [5], the system named is Pseudomonas aeruginosa. Description: Antibacterial activity against Pseudomonas aeruginosa 262-101856 assessed as fractional inhibitory concentration index incubated for 18 hrs in presence of tigecycline by broth microdilution assay. In kind it is functional.

Turning to `CO[C@H]1/C=C/O[C@@]2(C)Oc3c(C)c(O)c4c(O)c(c(/C=N/N5CCN(Cc6cn(CCCCCCO[C@@H]7[C@@H](O[C@H]8O[C@H](CO)[C@@H](O)[C@H](N)[C@H]8O)[C@H](N)C[C@H](N)[C@H]7O[C@H]7O[C@H](CN)[C@@H](O)C[C@H]7N)nn6)CC5)c(O)c4c3C2=O)NC(=O)/C(C)=C\C=C\[C@H](C)[C@H](O)[C@@H](C)[C@@H](O)[C@@H](C)[C@H](OC(C)=O)[C@@H]1C.Cl.Cl.Cl.Cl.Cl`, the FIC in the data set on Pseudomonas aeruginosa [1] is recorded as under 0.125. Moreover, the Activity result in the data set with Pseudomonas aeruginosa [2] is “Dose-dependent effect”; in the data set on HepG2, “Non-Toxic”. In addition, the “fold change (FC)” value in the data set on Pseudomonas aeruginosa [3] came out at 4. Also, the survival at 100 mg/kg in the data set with Pseudomonas aeruginosa [4] amounted to 75%. Besides, the “fractional inhibitory concentration index (FICI)” value in the data set on Pseudomonas aeruginosa [5] is reported as under 0.19.

These data come from ChEMBL document CHEMBL4715829, “Heterodimeric Rifampicin-Tobramycin conjugates break intrinsic resistance of Pseudomonas aeruginosa to doxycycline and chloramphenicol in vitro and in a Galleria mellonella in vivo model” (Eur J Med Chem, 2019).
